Laboratory results: ChEMBL document CHEMBL4190183 (Medchemcomm, 2016)
Active and inactive are the calls of the source. The calls are words filed in the database; no cut-off is given here.

Tests used:
DLD-1 = assay: Cytotoxicity against human DLD1 cells assessed as cell death at 10 uM after 48 hrs by MTT assay relative to control; format: functional
MDA-MB-231 = assay: Cytotoxicity against human MDA-MB-231 cells assessed as cell death at 10 uM after 48 hrs by MTT assay relative to control; format: functional
HepG2 [1] = assay: Cytotoxicity against human HepG2 cells assessed as cell death at 10 uM after 48 hrs by MTT assay relative to control; format: functional
A549 = assay: Cytotoxicity against human A549 cells assessed as cell death at 10 uM after 48 hrs by MTT assay relative to control; format: functional
HCT-116 = assay: Cytotoxicity against human HCT116 cells assessed as cell death at 10 uM after 48 hrs by MTT assay relative to control; format: functional
HEK293 = assay: Cytotoxicity against HEK293 cells assessed as cell death at 10 uM after 48 hrs by MTT assay relative to control; format: cell-based; details: human, hek293, 48 h
DNA ligase 1 [2] = target: T1, DNA ligase 1 (Homo sapiens, UniProt P18858); assay: Residual activity of human DNA ligase 1 expressed in Escherichia coli BL21(DE3)RP cells assessed as DNA ligation at 100 uM using fluorescently labelled ds nicked DNA as substrate after 30 mins by urea gel based imaging method relative to control
T1 sequence (P18858 whole entry): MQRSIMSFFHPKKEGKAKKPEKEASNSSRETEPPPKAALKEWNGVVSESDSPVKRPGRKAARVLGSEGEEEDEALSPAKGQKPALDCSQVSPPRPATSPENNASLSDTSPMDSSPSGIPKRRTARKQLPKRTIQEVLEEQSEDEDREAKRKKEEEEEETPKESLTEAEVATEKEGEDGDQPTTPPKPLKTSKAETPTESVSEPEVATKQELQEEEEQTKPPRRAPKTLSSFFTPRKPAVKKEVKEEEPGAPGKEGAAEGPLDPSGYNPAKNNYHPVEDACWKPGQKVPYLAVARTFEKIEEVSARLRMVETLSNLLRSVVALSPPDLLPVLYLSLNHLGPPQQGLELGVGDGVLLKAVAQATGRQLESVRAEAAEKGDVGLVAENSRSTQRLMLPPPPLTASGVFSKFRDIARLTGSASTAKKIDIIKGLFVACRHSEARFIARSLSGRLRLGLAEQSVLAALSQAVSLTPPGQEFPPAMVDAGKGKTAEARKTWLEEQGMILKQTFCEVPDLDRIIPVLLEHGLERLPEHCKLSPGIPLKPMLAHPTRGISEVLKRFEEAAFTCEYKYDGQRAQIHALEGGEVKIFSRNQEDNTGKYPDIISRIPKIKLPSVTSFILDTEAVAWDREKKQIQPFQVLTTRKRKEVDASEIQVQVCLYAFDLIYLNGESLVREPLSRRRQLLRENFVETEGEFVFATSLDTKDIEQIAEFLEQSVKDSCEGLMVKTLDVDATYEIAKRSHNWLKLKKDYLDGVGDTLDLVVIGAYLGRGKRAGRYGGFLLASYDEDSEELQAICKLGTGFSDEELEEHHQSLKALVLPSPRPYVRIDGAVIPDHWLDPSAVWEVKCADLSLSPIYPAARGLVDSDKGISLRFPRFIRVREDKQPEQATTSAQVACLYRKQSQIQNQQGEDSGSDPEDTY

DNA ligase 1 [3] = target: T1, DNA ligase 1; assay: Inhibition of human DNA ligase 1 expressed in Escherichia coli BL21(DE3)RP cells assessed as reduction in fluorescently labelled ds nicked DNA substrate ligation at 100 uM after 30 mins by urea gel based imaging method relative to control
[4] = Retention time of the compound by LC-MS/MS analysis; format: physicochemical
HepG2 [5] = assay: Induction of cell death in human HepG2 cells at 0.625 uM after 48 hrs by MTT assay; format: functional, cell-based

| SMILES | Activity (DLD-1) | Activity (MDA-MB-231) | Activity (HepG2 [1]) | Activity (A549) | Activity (HCT-116) | Activity (HEK293) | ligation (DNA ligase 1 [2]) | inhibition (DNA ligase 1 [3]) | Retention_time [4] | Activity (HepG2 [5]) |
| --- | --- | --- | --- | --- | --- | --- | --- | --- | --- | --- |
| CCOC(=O)C1=C(C)NC(=O)NC1c1cc(/C=N/NC(=S)NC)c(O)c(C(C)(C)C)c1 (stereo unspecified) | 34.1% | 29.7% | 23.7% | 27.3% | 22.5% | 24.6% | 19.2% | 80.8% |  |  |
| CCOC(=O)C1=C(C)NC(=S)NC1c1cc(/C=N/NC(=O)Nc2ccccc2)c(O)c(C(C)(C)C)c1 (stereo unspecified) | 17.6% | 7% | 26% | 26.8% | 17.9% | 53.3% | 19.1% | 80.9% |  |  |
| CCOC(=O)C1=C(C)NC(=O)NC1c1cc(/C=N/NC(=O)Nc2ccc(F)cc2)c(O)c(C(C)(C)C)c1 (stereo unspecified) | 19.1% | 43.7% | 37.1% | 39.3% | 17.5% | 46.8% | 15.3% | 84.7% |  |  |
| CCOC(=O)C1=C(C)NC(=O)NC1c1cc(C)c(O)c(/C=N/NC(N)=O)c1 (stereo unspecified) | -3% | 13.9% | 9.7% | 7% | 4.3% | 15.7% | 35.7% | 64.3% |  |  |
| CCOC(=O)C1=C(C)NC(=S)NC1c1cc(C)c(O)c(/C=N/NC(=O)Nc2ccc(Cl)cc2)c1 (stereo unspecified) | 1% | 20.2% | 22.8% | 12.8% | 50.8% | 42.6% | 13.4% | 86.7% |  |  |
| CCOC(=O)C1=C(C)NC(=S)NC1c1cc(/C=N/NC(=O)Nc2ccc(Cl)cc2)c(O)c(C(C)(C)C)c1 (stereo unspecified) | 17.1% | 13.8% | 81.3% | 54% | 63.3% | 65.7% | 22.9% | 77.1% |  |  |
| CCOC(=O)C1=C(C)NC(=S)NC1c1cc(/C=N/NC(=S)Nc2ccc(Cl)cc2)c(O)c(C(C)(C)C)c1 (stereo unspecified) | 15.5% | 17.3% | 28.9% | 24.5% | 57.8% | 52.7% | 20.6% | 79.4% |  |  |
| CCOC(=O)C1=C(C)NC(=O)NC1c1cc(/C=N/NC(=O)Nc2ccc(Br)cc2)c(O)c(C(C)(C)C)c1 (stereo unspecified) | 60.2% | 44.8% | 65.3% | 45.3% | 57.2% | 35.3% | 16% | 84% |  |  |
| CCOC(=O)C1=C(C)NC(=O)NC1c1cc(/C=N/NC(=S)Nc2ccccc2)c(O)c(C(C)(C)C)c1 (stereo unspecified) | 30% | 50.4% | 43% | 48.7% | 43.2% | 48.3% | 12% | 88.1% |  |  |
| OC(Cn1cncn1)(Cn1cncn1)c1ccc(F)cc1F [FLUCONAZOLE] |  |  |  |  |  |  |  |  | 2.08 min |  |
| CCOC(=O)C1=C(C)NC(=O)NC1c1cc(C)c(O)c(/C=N/NC(=S)NC)c1 (stereo unspecified) | 18.1% | 31% | 33.1% | 14% | 17.7% | 22.7% | 19.6% | 80.4% |  |  |
| CCOC(=O)C1=C(C)NC(=S)NC1c1cc(/C=N/NC(=S)Nc2ccccc2)c(O)c(C(C)(C)C)c1 (stereo unspecified) | 67.6% | 26.1% | 26.5% | 29.6% | 49.9% | 54.1% | 33.2% | 66.8% |  |  |
| CCOC(=O)C1=C(C)NC(=O)NC1c1cc(C)c(O)c(C=O)c1 (stereo unspecified) | 14.7% | 32.5% | 18.3% | 34.7% | 5.7% | 9.2% | 23.1% | 76.9% |  |  |
| CCOC(=O)C1=C(C)NC(=O)NC1c1cc(/C=N/NC(N)=S)c(O)c(C(C)(C)C)c1 (stereo unspecified) | 5.5% | 21.1% | 11.1% | 17% | 7.8% | 17% | 19.6% | 80.4% |  |  |
| CCOC(=O)C1=C(C)NC(=O)NC1c1cc(/C=N/NC(N)=O)c(O)c(C(C)(C)C)c1 (stereo unspecified) | 19.9% | 18.4% | 0.7% | 9.1% | 2.6% | 14% | 22.4% | 77.6% |  |  |
| CCOC(=O)C1=C(C)NC(=O)NC1c1cc(/C=N/NC(=S)Nc2ccc(Cl)cc2)c(O)c(C(C)(C)C)c1 (stereo unspecified) | 43% | 83.6% | 78.9% | 53.3% | 82.5% | 53.1% | 19.1% | 80.9% |  |  |
| CCOC(=O)C1=C(C)NC(=S)NC1c1cc(/C=N/NC(=S)Nc2ccc(C)cc2)c(O)c(C(C)(C)C)c1 (stereo unspecified) | 45.7% | 3.3% | 23.5% | 9.3% | 50.5% | 40.2% | 31.1% | 68.9% |  |  |
| CCOC(=O)C1=C(C)NC(=O)NC1c1cc(C=O)c(O)c(C(C)(C)C)c1 (stereo unspecified) | 8.1% | 20.7% | 11.4% | 25.4% | 1.8% | 10.7% | 26.4% | 73.6% |  |  |
| CCOC(=O)C1=C(C)NC(=O)NC1c1cc(C)c(O)c(/C=N/NC(N)=S)c1 (stereo unspecified) | 6.2% | 10.7% | 23.3% | 4.7% | 1.3% | 6.7% | 15.9% | 84.1% |  |  |
| COc1cccc2c1C(=O)c1c(O)c3c(c(O)c1C2=O)C[C@@](O)(C(=O)CO)C[C@@H]3O[C@H]1C[C@H](N)[C@H](O)[C@H](C)O1 |  |  |  |  |  |  |  |  |  | Active |
